This note sets out measurements from patent publication US20130123365A1, “USE OF FTS AND ANALOGS TO TREAT NON-AUTOIMMUNE-ALLERGIC AND NON-ALLERGIC INFLAMMATORY CONDITIONS” (RAMOT AT TEL-AVIV UNIVERSITY LTD., priority 2010, published 2013).

The subject of experiment [1] is LAD2 cells. Description: PGD2 release from stimulated mast cells (ELISA). It is filed as cell-based, human. As to conditions: 6 hours after stimulation. The procedure:
(§1) The LAD2 MC, expressing functional FCεRI receptors, were established from bone marrow aspirates of a patient with MC leukemia and maintained as previously described. Transfection of LAD2 cells was performed with DMRIE-C (Invitrogen, Carlsbad, Calif.), and cells were studied 24 hours later. For IgE-mediated activation, cells were sensitized overnight with 100 ng/ml of human myeloma IgE-biotin (Calbiochem; Merck Darmstadt, Germany) and then stimulated with 100 ng/ml of streptavidin (Jackson Immuno-Research Laboratories, West Grove, Pa.). Degranulation was quantified 20 minutes after stimulation by assaying the release of ε-hexosaminidase, a preformed mediator present in the secretory granules of MC. Release of ε-hexosaminidase was measured spectrophotometrically by assaying the cleavage of its substrate p-nitrophenyl-N-acetyl-ε-D-glucosaminide. Degranulation was expressed as a percentage of total ε-hexosaminidase activity in the cells, obtained by lysis of the cells with 0.5% triton X-100. Supernatants obtained from MC stimulated for 3 to 6 hours were examined for the released PGD2 and TNF-α by a commercial ELISA kits, according to the manufacturer's instructions (Prostaglandin D2-MOX EIA Kit, Cayman Chemical Company, Ann Arbor, Mich., and TNF-α HS Elisa kit, R&D® Systems Inc., Minneapolis, Minn.).

The test system of experiment [2] is LAD2 cells. Description: Mast cell degranulation (β-hexosaminidase secretion) after FCεRI cross-linking. It is filed as cell-based, human. As to conditions: 20 minutes after stimulation. The method, then:
as §1

Experiment [3] has as its system LAD2 cells. Put plainly: TNF-α release from stimulated mast cells (ELISA). It is filed as cell-based, human. As to conditions: different concentrations of FTS, 3 hours after stimulation, dose dependent, p<0.05. The method, then:
as §1

A further experiment addresses T1, N-Ras (Homo sapiens, UniProt P01111).
T1 construct: expressed in transfected cells; host or cells: LAD2 human mast cell line
Put plainly: Ras activation imaging: GFP-Raf-1-RBD probe translocation in LAD2 cells after FCεRI cross-linking. As to conditions: LAD2 cells expressing RFP-N-Ras, pretreated with 25 μM FTS. It is filed as cell-based. The procedure:
The LAD2 MC, expressing functional FCεRI receptors, were established from bone marrow aspirates of a patient with MC leukemia and maintained as previously described. Transfection of LAD2 cells was performed with DMRIE-C (Invitrogen, Carlsbad, Calif.), and cells were studied 24 hours later.
as §1, with “For” for “The LAD2 MC, expressing functional FCεRI receptors, were established from bone marrow aspirates of a patient with MC leukemia and maintained as previously described. Transfection of LAD2 cells was performed with DMRIE-C (Invitrogen, Carlsbad, Calif.), and cells were studied 24 hours later. For”
Live cells were plated in 35-mm dishes containing a no. […]

Another experiment concerns BALB/c female mice. Description: IgE-dependent passive cutaneous anaphylaxis reaction, footpad swelling. It is filed as in vivo. As to conditions: oral 100 mg/kg. The method, then:
The study was approved by the Institutional Ethics Committee of Tel Aviv University. 8-10 weeks old BALB/c female mice were primed to express an IgE-dependent passive cutaneous anaphylaxis (PCA) reaction. Mice were lightly anaesthetized with ether and their left footpads were injected subcutaneously with 20 ul (20 ng) of IgE anti DNP. Their right footpads were injected with 20 ul of diluents. The next day the mice received an intraperitoneal injection of 100 ug of DNP30-40-HAS in saline. Footpad swelling was measured with an engineer's micrometer (Ozaki Mfg. Co., Itabashi, Tokyo). Footpad swelling was expressed as the difference in thickness before and after the challenge, measured at several time points after the challenge. FTS was orally administrated before the antigen challenge at 100 mg/kg as previously described.

The test system of another experiment is Ras. Description: Raf-1-RBD pull-down assay of GTP loaded Ras in stimulated LAD2 cells. It is filed as cell-based, human. As to conditions: FCεRI cross-linking, pretreated with 25 μM FTS. The method, then:
as §1, with “For” for “The LAD2 MC, expressing functional FCεRI receptors, were established from bone marrow aspirates of a patient with MC leukemia and maintained as previously described. Transfection of LAD2 cells was performed with DMRIE-C (Invitrogen, Carlsbad, Calif.), and cells were studied 24 hours later. For”, “Minn.). Methods of detecting activated Ras by pull-down assay and by SDS-PAGE immunoblotting were performed as previously described.” for “Minn.).”

T1 sequence (P01111 whole entry, species assumed): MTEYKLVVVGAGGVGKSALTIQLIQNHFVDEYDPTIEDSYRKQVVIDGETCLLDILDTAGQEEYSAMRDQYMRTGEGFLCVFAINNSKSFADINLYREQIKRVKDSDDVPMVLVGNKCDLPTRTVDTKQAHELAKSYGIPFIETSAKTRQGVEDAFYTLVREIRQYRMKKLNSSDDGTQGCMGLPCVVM

With `CC(C)=CCCC(C)=CCCC(C)=CCSc1ccccc1C(=O)O` [FTS, S-farnesylthiosalicylic acid], the “release of PGD2” value with LAD2 cells [1] (25 μM FTS) was “not”; in the experiment with LAD2 cells [1] (50 μM FTS), “inhibited”. Moreover, the “immunological degranulation (β-hexosaminidase secretion)” value with LAD2 cells [2] (25 μM FTS) and in the experiment with LAD2 cells [2] (50 μM FTS) was “did not significantly modify” each time. For the same compound, the TNF-α release entry in the experiment on LAD2 cells [3] is “appreciably inhibited”. In addition, the “translocation of the probe for activated Ras (GFP-Raf-1-RBD) to the plasma membrane” value at N-Ras is listed as “completely blocked”. In addition, the “tissue (footpad) swelling” value with BALB/c female mice (three hours after antigen challenge) is “inhibited tissue swelling”. Moreover, the “attenuation of tissue (footpad) swelling” value in the experiment with BALB/c female mice (three to six hours after antigen challenge) was around 40%. Also, the “levels of GTP loaded Ras” value with Ras was “significantly attenuated”. In the experiment with Ras (n=4), the “relative reduction in the amount of activated Ras” value is “approximately 35%”.
